The subject of one data set is DNA. Description: Bleomycin-dependent DNA damage. The data set is classed as biochemical. The note with it: test sample 0.1 mg/mL, λ = 532 nm; mean of three replicates ± SD; ascorbic acid 0.24 mM. An excerpt:
Bleomycin-dependent DNA damage. The prepared polycyclic thiadiazolopyrimidine-based compounds were examined through the bleomycin-dependant DNA damage, and the results were compared to that of ascorbic acid as a positive control. The obtained data reflected the ability of these derivatives to protect the DNA from damage. The capability of compounds 16a–b and 17a–b to manifest the best protective effect against DNA damage was indicated by the corresponding absorbance values ranging from 0.031 to 0.053 (Table 4)[35],[36].
Bleomycin-dependent DNA damage experiment: To a mixture of 0.5 mg / mL of DNA, 5 mM magnesium chloride, 50 mM ferric chloride and 0.05 mg / mL bleomycin sulfate was prepared. The test sample was prepared at a concentration of 0.1 mg / mL and added to the mixture. After incubation of the mixture for one hour at 37 °C, 0.05 mL of EDTA (0.1 M) was added to terminate the reaction. In the next step, 0.5 mL of TBA (1% w / v) and 0.5 mL of HCl (25% v / v) were added for colour development and the mixture was heated for 10 minutes at 80 °C. The mixture was centrifuged and the absorbance expressed, the amount of damage to the DNA was measured at λ = 532 nm. L-Ascorbic acid (0.24 mM) was used as a positive control.

For another data set, the system named is HepG2. Description: MTT cytotoxicity assay. The data set is classed as cell-based. The note with it: Homo sapiens, HepG2, 72 h, 3 days. Here is the method:
(§1) The cytotoxicity of the prepared tri-and tetra-cyclic thiadiazolopyrimidine compounds were examined toward various cancer cell lines, such as liver and breast cancer (MCF-7), prostate cancer (PC3), laryngeal carcinoma (Hep-2), carcinoma (HepG2), and standard normal fibroblast cells (WI38) using the MTT assay[33] at the National Research Centre (Egypt). The cytotoxicity (Table 3) toward 50% inhibition of the cell viability (IC50 values) was assessed using 5-fluorouracil (5-Fu) as the standard anticancer drug.
(§2) The synthesized compounds were subjected to the MTT cytotoxicity assay on the basis of the cited literature.
(§3) MTT cytotoxicity assay: The technical method of MTT assay depends on the reduction of yellow 3-(4,5-methyl-2-thiazolyl)-2,5-diphenyl-2H-tetrazolium bromide (MTT) into purple formazan product, mainly by mitochondrial reductase activity inside the living cells. The cells used in cytotoxicity assay were cultured in RPMI 1640 medium supplemented with 10% fetal calf serum. Cells suspended in the medium (2×10^4 cells/mL) were plated in 96-well culture plates and incubated at 37 °C in a 5% CO2 incubator for 12 hours. The tested sample (2 μL) was added to the cells (2×10^4) in 96-well plates and cultured at 37 °C for 3 days. The cultured cells were mixed with 20 μL of MTT solution and incubated for 4 hours at 37 °C. The supernatant was carefully removed from each well, the formazan crystals were dissolved after addition of DMSO (100 μL) for each well to form the cellular reduction of MTT. After mixing with a mechanical plate mixer, the absorbance of each well was measured by a microplate reader using a test wavelength of 570 nm. The results were expressed as the IC50 values, which inducing 50% inhibition of cell growth of the treated cells when compared to the growth of control cells.

The next data set relates to MCF-7. Description: MTT cytotoxicity assay. The data set is classed as cell-based. To be noted: Homo sapiens, MCF7, 72 h, 3 days. As to the method: as §1, §2, §3
The subject of the next data set is Hep-2. Kind of data set: MTT cytotoxicity assay. The note with it: Homo sapiens, HEp-2, 72 h, 3 days. The data set is classed as cell-based. As to the method: as §1, §2, §3
A further data set has as its system PC3. Description: MTT cytotoxicity assay. The data set is classed as cell-based. To be noted: Homo sapiens, PC-3, 72 h, 3 days. Here is the method:
as §1, §2, §3

With `N#Cc1cn2ncsc2nc1=O` [Compound 3, 6-cyano-7-oxo-7H-[1,3,4]thiadiazolo[3,2-a]pyrimidine], the melting point was in the range of 264 to 265 °C. In the data set on DNA, the “Absorbance (bleomycin-dependent DNA damage)” value came out at 0.281 ± 0.22. In addition, 82.3 ± 2.19 µM corresponded to half-maximal inhibition with HepG2 (IC50). The compound further yielded an IC50 in the data set with MCF-7 of 78 ± 1.37 µM. In addition, in the data set on Hep-2, inhibition was half-maximal at 87.5 ± 2.35 µM (IC50). This compound gave a 50% inhibitory concentration (IC50) in the data set on PC3 of 92.8 ± 3.48 µM.
The compound `N#CC1=C(c2ccccc2)OC(N)=C2C(=O)N=C3SC=NN3C12` (stereo not drawn) [Compound 9b, 6-Amino-9-cyano-5-oxo-8-phenyl-5H,9aH-pyrano[3,4-e][1,3,4]thiadiazolo[3,2-a]pyrimidine] came in with a melting point of 258 to 260 °C. The “Absorbance (bleomycin-dependent DNA damage)” value in the data set on DNA is 0.083 ± 0.08. Half-maximal inhibition in the data set on HepG2 (IC50) was put at 26.78 ± 0.18 µM. The same compound gave an IC50 in the data set on MCF-7 of 12.8 ± 0.26 µM. The compound further registered an IC50 with Hep-2 of 11.7 ± 0.36 µM. The compound further yielded an IC50 in the data set on PC3 of 38.4 ± 0.89 µM.

The values are drawn from paper PMC8333053, “Synthesis and biological screening of new thiadiazolopyrimidine-based polycyclic compounds” (Scientific Reports, 2021).
